Experimental data taken from paper PMC7692634, “Structural Basis of Inhibition of the Pioneer Transcription Factor NF-Y by Suramin” (Cells, 2020).

Tests used:
[1] = target: T1, NF-Yt (NF-Ymd, minimal domain NF-Y trimer) (Homo sapiens, UniProt P25208+Q13952); assay: STD NMR; EMSA inhibition of DNA binding; conditions: STD NMR: 25 µM protein, 1 mM suramin, 10 mM Tris-DCl pH 8, 150 mM NaCl, 25 °C; EMSA: 40 nM protein, 20 nM HSP70 CCAAT probe, pH 7.5, 30 °C
T1 construct: gene NFYB; minimal domains NF-YB 49-141, NF-YC 27-120, NF-YA 262-332 with C-terminal 6His (thrombin-cleaved); coexpressed in E. coli BL21(DE3); with Nuclear transcription factor Y subunit alpha
T1 sequence (P23511 262-332 partner, one chain of several): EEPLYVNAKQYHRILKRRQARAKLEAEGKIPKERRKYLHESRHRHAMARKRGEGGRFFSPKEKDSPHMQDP

[2] = target: T2, NF-Yd/YA (reconstituted NF-Y trimer with YA3) (Homo sapiens, UniProt P25208+Q13952); assay: EMSA inhibition of DNA binding; conditions: 40 nM protein, 20 nM Cy5 HSP70 CCAAT probe, pH 7.5, 5 mM MgCl2, 30 °C; suramin 50 and 100 µM
T2 construct: gene NFYB; NF-Yd (NF-YB 49-141/NF-YC 27-120, His-tag cut) mixed with separately purified NF-YA aa 239-347, C-terminal His-tag; E. coli BL21(DE3); with Nuclear transcription factor Y subunit alpha
T2 sequence (P23511 239-347 partner, one chain of several): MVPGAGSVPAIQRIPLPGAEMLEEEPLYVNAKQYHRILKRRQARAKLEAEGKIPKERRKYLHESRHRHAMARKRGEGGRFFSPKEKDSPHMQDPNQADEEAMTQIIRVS

[3] = target: T3, NF-Yd (NF-YB/NF-YC histone fold domain dimer, YB/YCmd) (Homo sapiens, UniProt P25208+Q13952); assay: ITC; type: binding
T3 construct: gene NFYB; minimal histone fold domains, NF-YB aa 49-141 with N-terminal 6His (thrombin-cleaved), NF-YC aa 27-120; coexpressed in E. coli BL21(DE3)
T3 sequence (P25208 51-143): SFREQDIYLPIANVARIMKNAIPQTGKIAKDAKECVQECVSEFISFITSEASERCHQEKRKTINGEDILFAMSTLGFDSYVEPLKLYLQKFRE
T3 sequence (Q13952 27-120): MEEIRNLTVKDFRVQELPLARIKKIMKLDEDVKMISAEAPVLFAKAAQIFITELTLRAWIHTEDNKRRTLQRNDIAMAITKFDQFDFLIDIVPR

SMILES: Cc1ccc(C(=O)Nc2ccc(S(=O)(=O)O)c3cc(S(=O)(=O)O)cc(S(=O)(=O)O)c23)cc1NC(=O)c1cccc(NC(=O)Nc2cccc(C(=O)Nc3cc(C(=O)Nc4ccc(S(=O)(=O)O)c5cc(S(=O)(=O)O)cc(S(=O)(=O)O)c45)ccc3C)c2)c1 [suramin]
- STD NMR; EMSA inhibition of DNA binding [1]: demonstrates the interaction of the compound with both the dimer and the trimer
- EMSA inhibition of DNA binding [2]: suramin addition substantially decreased the formation of NF-Y-bound DNA complexes, in a dose-dependent manner
- Kd [3]: 2900 ± 700 nM
